In US20240409585A1, “MACROCYCLIC IMMUNOMODULATORS” (priority 2021, published 2024):
Bridge positions count the residues as written; N and C are the ends. Square brackets hold non-standard residues; d marks the D form. Peptide text beside a SMILES is read from it. * marks the point of attachment. ξ: configuration not given here. Ala(1H-tetrazol-5-yl) = N[C@@H](Cc1nnn[nH]1)C(=O)O; Phe(4-COOH) = N[C@@H](Cc1ccc(C(=O)O)cc1)C(=O)O; Trp(2-Me) = Cc1[nH]c2ccccc2c1C[C@H](N)C(=O)O; Bip = N[C@@H](Cc1ccc(-c2ccccc2)cc1)C(=O)O; Phe(3-Me) = Cc1cccc(C[C@H](N)C(=O)O)c1; Bta = N[C@@H](Cc1csc2ccccc12)C(=O)O; Val(3-OH) = CC(C)(O)[C@H](N)C(=O)O; 4Pal = N[C@@H](Cc1ccncc1)C(=O)O; Cha = N[C@@H](CC1CCCCC1)C(=O)O; Ile(3ξ) = CCC(C)[C@H](N)C(=O)O; Thr(3ξ) = CC(O)[C@H](N)C(=O)O; NMeNle = CCCC[C@H](NC)C(=O)O; Carboxymethyl = O=C(O)C*; NMeA = CN[C@@H](C)C(=O)O; Orn = NCCC[C@H](N)C(=O)O; Pra = C#CC[C@H](N)C(=O)O; Dab = NCC[C@H](N)C(=O)O; Bn = c1ccc(C*)cc1

The compounds below were run against T1, PE-labeled human PD-L1-Ig binding to Jurkat cell line over-expressing human PD-1 (Jurkat-PD-1) (Homo sapiens, UniProt Q15116) (assay: Jurkat-PD-1 Cell Binding High-Content Screening Assay (CBA): Method 1). Conditions: Jurkat HPDL1 PD1 IC50 (uM) (Method 1), Jurkat-hPD-1 cells, PE-labeled PD-L1-Ig 20 nM final.
T1 construct: expressed in transfected cells; host or cells: Jurkat
T1 sequence (Q15116 25-288): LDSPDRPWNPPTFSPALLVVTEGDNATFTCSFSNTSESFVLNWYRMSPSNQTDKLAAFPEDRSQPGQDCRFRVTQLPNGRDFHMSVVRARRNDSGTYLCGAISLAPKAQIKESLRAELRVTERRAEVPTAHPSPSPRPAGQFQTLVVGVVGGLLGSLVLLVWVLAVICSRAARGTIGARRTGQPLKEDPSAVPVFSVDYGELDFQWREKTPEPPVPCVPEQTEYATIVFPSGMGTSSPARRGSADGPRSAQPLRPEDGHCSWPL
Compound `CC(C)C[C@@H]1NC(=O)[C@H](Cc2c[nH]c3ccccc23)NC(=O)[C@H](CC(=O)O)NC(=O)[C@H](Cc2ccc(OCC(=O)O)cc2)NC(=O)[C@H](Cc2ccccc2)NC(=O)CSC[C@@H](C(=O)N[C@@H](C)C(N)=O)NC(=O)[C@H](CO)NC(=O)[C@H](C(C)C)NC(=O)[C@H](CC(C)C)NC(=O)[C@H](CC(N)=O)NC(=O)[C@@H](CC(C)C)NC(=O)[C@H](C)N(C)C(=O)[C@H](C(C)C)NC(=O)[C@H](Cc2ccc(OCc3ccccc3)cc2)NC1=O` [Compound 2028] ({CH2CO}-FY(Carboxymethyl)DWLY(Bn)V[NMeA][dL]NLVSCA-NH2; thioether N-14) has an IC50 of 0.48 µM.

Same assay, conditions: Jurkat-hPD-1 cells, PE-labeled PD-L1-Ig 20 nM final; read-out: Jurkat HPDL1 PD1 IC50 (uM) (Method 1)
`Cc1[nH]c2ccccc2c1C[C@@H]1NC(=O)[C@H](CC(=O)O)NC(=O)[C@H](Cc2ccc(O)cc2)NC(=O)[C@H](Cc2ccccc2)NC(=O)CSC[C@@H](C(=O)N[C@@H](C)C(N)=O)NC(=O)[C@H]([C@@H](C)O)NC(=O)[C@H](C(C)C)NC(=O)[C@H](CC(C)C)NC(=O)[C@H](CCN)NC(=O)[C@@H](CC(C)C)NC(=O)[C@H](C)N(C)C(=O)[C@H](CCCNC(=N)N)NC(=O)[C@H](Cc2ccc(-c3ccccc3)cc2)NC(=O)[C@H](C(C)C)NC1=O` [Compound 1202] ({CH2CO}-FYD[Trp(2-Me)]V[Bip]R[NMeA][dL][Dab]LVTCA-NH2; thioether N-14) gave an IC50 of 0.73 µM.
`CCC(C)[C@@H]1NC(=O)[C@H](Cc2ccc(-c3ccccc3)cc2)NC(=O)[C@H](CC(C)C)NC(=O)[C@H](Cc2c[nH]c3ccccc23)NC(=O)[C@H](CC(=O)O)NC(=O)[C@H](Cc2ccc(C(=O)O)cc2)NC(=O)[C@H](Cc2ccc(OCC(=O)O)cc2)NC(=O)CSC[C@@H](C(=O)N[C@@H](CO)C(N)=O)NC(=O)[C@H](CCC(N)=O)NC(=O)[C@H](C(C)C)NC(=O)[C@H](CC2CCCCC2)NC(=O)[C@H](CCN)NC(=O)[C@@H](CC(C)C)NC(=O)[C@H](C)N(C)C1=O` (stereo partly drawn) [Compound 1931] ({CH2CO}-Y(Carboxymethyl)[Phe(4-COOH)]DWL[Bip][Ile(3ξ)][NMeA][dL][Dab][Cha]VQCS-NH2; thioether N-14) gave an IC50 of 0.02 µM.
`CC(C)C[C@@H]1NC(=O)[C@H](Cc2c[nH]c3ccccc23)NC(=O)[C@H](Cc2nn[nH]n2)NC(=O)[C@H](Cc2ccc(O)cc2)NC(=O)[C@H](Cc2ccccc2)NC(=O)CSC[C@@H](C(=O)N[C@@H](C)C(N)=O)NC(=O)[C@H](CO)NC(=O)[C@H](C(C)C)NC(=O)[C@H](CC(C)C)NC(=O)[C@H](CC(N)=O)NC(=O)[C@@H](CC(C)C)NC(=O)[C@H](C)N(C)C(=O)[C@H](C(C)C)NC(=O)[C@H](Cc2ccc(-c3ccccc3)cc2)NC1=O` [Compound 1541] ({CH2CO}-FY[Ala(1H-tetrazol-5-yl)]WL[Bip]V[NMeA][dL]NLVSCA-NH2; thioether N-14) was tested, and the IC50 was 0.02 µM.
Work on `CC(C)C[C@@H]1NC(=O)[C@H](CCCN)NC(=O)[C@H](Cc2csc3ccccc23)NC(=O)[C@H](C)N(C)C(=O)[C@H](CCCNC(=N)N)NC(=O)[C@H](Cc2ccc(-c3ccccc3)cc2)NC(=O)[C@H](C(C)C)NC(=O)[C@H](Cc2c[nH]c3ccccc23)NC(=O)[C@H](CC(=O)O)NC(=O)[C@H](Cc2ccc(O)cc2)NC(=O)[C@H](Cc2ccccc2)NC(=O)CSC[C@@H](C(=O)N[C@@H](C)C(N)=O)NC(=O)[C@H]([C@@H](C)O)NC(=O)[C@H](C(C)C)NC1=O` [Compound 1120] ({CH2CO}-FYDWV[Bip]R[NMeA][Bta][Orn]LVTCA-NH2; thioether N-14) yielded an IC50 of 0.27 µM.
`Cc1cccc(C[C@@H]2NC(=O)[C@H](CC(=O)O)NC(=O)[C@H](Cc3ccc(OCC(=O)O)cc3)NC(=O)[C@H](C(C)O)NC(=O)CSC[C@@H](C(=O)N[C@@H](CCN)C(N)=O)NC(=O)[C@H](CO)NC(=O)[C@H](C(C)(C)O)NC(=O)[C@H](CC3CCCCC3)NC(=O)[C@H](CCN)NC(=O)[C@@H](CC(C)C)NC(=O)[C@H](C)N(C)C(=O)[C@H](Cc3ccc(OCC(=O)O)cc3)NC(=O)[C@H](Cc3ccc(-c4ccccc4)cc3)NC(=O)[C@H](Cc3ccc(OCC(=O)O)cc3)NC2=O)c1` (stereo partly drawn) [Compound 2149] ({CH2CO}-[Thr(3ξ)]Y(Carboxymethyl)D[Phe(3-Me)]Y(Carboxymethyl)[Bip]Y(Carboxymethyl)[NMeA][dL][Dab][Cha][Val(3-OH)]SC[Dab]-NH2; thioether N-14) showed an IC50 of 0.02 µM.
For `CCC(C)[C@@H]1NC(=O)[C@H](Cc2ccc(-c3ccccc3)cc2)NC(=O)[C@H](C(C)C)NC(=O)[C@H](Cc2cccc(C)c2)NC(=O)[C@H](CC(=O)O)NC(=O)[C@H](Cc2ccc(OCC(=O)O)cc2)NC(=O)[C@H](Cc2ccncc2)NC(=O)CSC[C@@H](C(=O)N[C@@H](CCCN)C(N)=O)NC(=O)[C@H](C(C)O)NC(=O)[C@H](C(C)(C)O)NC(=O)[C@H](CC2CCCCC2)NC(=O)[C@H](CCN)NC(=O)[C@@H](CC(C)C)NC(=O)[C@H](C)N(C)C1=O` (stereo partly drawn) [Compound 2145] ({CH2CO}-[4Pal]Y(Carboxymethyl)D[Phe(3-Me)]V[Bip][Ile(3ξ)][NMeA][dL][Dab][Cha][Val(3-OH)][Thr(3ξ)]C[Orn]-NH2; thioether N-14), the IC50 was 0.01 µM.
Work on `C#CC[C@H](NC(=O)[C@@H](C)NC(=O)[C@@H]1CSCC(=O)N[C@@H]([C@@H](C)O)C(=O)N[C@@H](Cc2ccc(OCC(=O)O)cc2)C(=O)N[C@@H](CC(=O)O)C(=O)N[C@@H](Cc2cccc(C)c2)C(=O)N[C@@H](Cc2ccc(OCC(=O)O)cc2)C(=O)N[C@@H](Cc2ccc(-c3ccccc3)cc2)C(=O)N[C@@H](Cc2ccc(OCC(=O)O)cc2)C(=O)N(C)[C@@H](C)C(=O)N[C@H](CC(C)C)C(=O)N[C@@H](CCN)C(=O)N[C@@H](CC2CCCCC2)C(=O)N[C@@H](C(C)(C)O)C(=O)N[C@@H](CCC(=O)O)C(=O)N1)C(=O)O` [Compound 1944] ({CH2CO}-TY(Carboxymethyl)D[Phe(3-Me)]Y(Carboxymethyl)[Bip]Y(Carboxymethyl)[NMeA][dL][Dab][Cha][Val(3-OH)]EC[dA][Pra]-OH; thioether N-14) yielded an IC50 of 0.9 µM.
`CCCC[C@H]1C(=O)N[C@H](CC(C)C)C(=O)N[C@@H](CCN)C(=O)N[C@@H](CC(C)C)C(=O)N[C@@H](C(C)C)C(=O)N[C@@H]([C@@H](C)O)C(=O)N[C@H](C(=O)N[C@@H](C)C(N)=O)CSCC(=O)N[C@@H](CC(N)=O)C(=O)N[C@@H](Cc2ccc(O)cc2)C(=O)N[C@@H](CC(=O)O)C(=O)N[C@@H](Cc2c[nH]c3ccccc23)C(=O)N[C@@H](C(C)C)C(=O)N[C@@H](Cc2ccc(-c3ccccc3)cc2)C(=O)N[C@@H](C(C)C)C(=O)N1C` [Compound 1365] ({CH2CO}-NYDWV[Bip]V[NMeNle][dL][Dab]LVTCA-NH2; thioether N-14) showed an IC50 of 0.01 µM.
`CC[C@H](C)[C@@H]1NC(=O)[C@H](Cc2ccc(-c3ccccc3)cc2)NC(=O)[C@H](C(C)C)NC(=O)[C@H](Cc2cccc(C)c2)NC(=O)[C@H](CC(=O)O)NC(=O)[C@H](Cc2ccc(O)cc2)NC(=O)[C@H](CC(N)=O)NC(=O)CSC[C@@H](C(=O)N[C@@H](CCN)C(N)=O)NC(=O)[C@H]([C@@H](C)O)NC(=O)[C@H](C(C)(C)O)NC(=O)[C@H](CC2CCCCC2)NC(=O)[C@H](CCN)NC(=O)[C@@H](CC(C)C)NC(=O)[C@H](C)N(C)C1=O` [Compound 1689] ({CH2CO}-NYD[Phe(3-Me)]V[Bip]I[NMeA][dL][Dab][Cha][Val(3-OH)]TC[Dab]-NH2; thioether N-14) showed an IC50 of 0.02 µM.
